Reference: patent publication US3997517A, “Cyclic somatostatin disulfide analogues” (American Home Products Corporation, priority 1976, dated 1976)

Assays:
Format in all cases: in vivo
blood serum insulin = test: Blood serum insulin in Nembutal-treated rats, radioimmunoassay; conditions: Nembutal 50 mg/kg i.p., blood sampled 15 min later
Experimental: (§1) The in vivo activity of the cyclic somatostatin disulfide analogues of this invention was established with cyclic somatostatin disulfide as a representative member of the family of compounds by comparing the blood serum growth hormone, glucagon and insulin concentrations found in rats grouped for control, somatostatin and cyclic somatostatin disulfide comparison. The rats, weighing between 200 and 250 grams were treated with Nembutal, 50 milligrams per kilogram intraperitoneally. After five minutes the somatostatin, control and cyclic somatostatin disulfide administrations were made subcutaneously. The rats blood was sampled fifteen minutes later and the growth hormone, glucagon and insulin levels were determined by radioimmunoassay.

blood serum glucagon = test: Blood serum glucagon in Nembutal-treated rats, radioimmunoassay; conditions: Nembutal 50 mg/kg i.p., blood sampled 15 min later
Experimental: as §1

[1] = tested on: blood serum growth hormone; test: Blood serum growth hormone in Nembutal-treated rats, radioimmunoassay; conditions: Nembutal 50 mg/kg i.p., blood sampled 15 min later, control 291±47, *p < 0.01
Experimental: as §1

`C[C@H](N)C(=O)NCC(=O)N[C@H]1CSSC[C@@H](C(=O)O)NC(=O)[C@H](CO)NC(=O)[C@H]([C@@H](C)O)NC(=O)[C@H](Cc2ccccc2)NC(=O)[C@H]([C@@H](C)O)NC(=O)[C@H](CCCCN)NC(=O)[C@H](Cc2c[nH]c3ccccc23)NC(=O)[C@H](Cc2ccccc2)NC(=O)[C@H](Cc2ccccc2)NC(=O)[C@H](CC(N)=O)NC(=O)[C@H](CCCCN)NC1=O` [Somatostatin, somatostatin] was tested, and the Insulin (blood serum insulin; dose 200 μg/kg subcutaneously, control 272±39, +p < 0.05) was 161 ± 21 µU/mL, the Glucagon (blood serum glucagon; dose 200 μg/kg subcutaneously, control 33±2, *p < 0.01) was 17 ± 2 pg/mL and the GH ([1]; dose 200 μg/kg subcutaneously) was 40 ± 4 ng/mL.
Work on `C[C@@H]1NC(=O)[C@@H]2CSSC[C@H](NC(=O)CNC1=O)C(=O)N[C@@H](CCCCN)C(=O)N[C@@H](CC(N)=O)C(=O)N[C@@H](Cc1ccccc1)C(=O)N[C@@H](Cc1ccccc1)C(=O)N[C@@H](Cc1c[nH]c3ccccc13)C(=O)N[C@@H](CCCCN)C(=O)N[C@@H]([C@@H](C)O)C(=O)N[C@@H](Cc1ccccc1)C(=O)N[C@@H]([C@@H](C)O)C(=O)N[C@@H](CO)C(=O)N2` [Example IV, Cyclo-L-cysteinyl-L-alanyl-glycyl-L-cysteinyl-L-lysyl-L-asparaginyl-L-phenyl-alanyl-L-phenylalanyl-L-tryptophyl-L-lysyl-L-threonyl-L-phenylalanyl-L-threonyl-L-serine (1-4 disulfide)] yielded an Insulin (blood serum insulin; dose 3000 μg/kg subcutaneously, control 272±39) of 308 ± 30 µU/mL, a Glucagon (blood serum glucagon; dose 3000 μg/kg subcutaneously, control 33±2) of 29.7 ± 4 pg/mL and a GH ([1]; dose 3000 μg/kg subcutaneously) of 40 ± 4 ng/mL.
